The nature of data set [1]: Stability in aqueous solution. The format is physicochemical. The source says:
In the parent application it was pointed out that DAM, the active ingredient, is effectively soluble and stable in water in the form of its hydrochloride salt. Deacetyl moxisylyte hydrochloride (DAM.HCl) is soluble up to a concentration of 10% p/v, which is the upper therapeutically acceptable concentration, in pure (i.e. distilled, bidistilled or preferably deionized) water and in aqueous solutions buffered at pH 5-7. Water solutions containing 1% p/v of deacetyl moxisylyte hydrochloride without any antioxidant and kept at pH 5, 6 and 7, are stable for 15 days at 25° C. and for 90 minutes at 121° C. […] More details regarding the solubility and stability in water of DAM.HCl are given in the parent application.

Data set [2] can be described thus: Hepatotoxicity on administration (general statement). To be noted: administered iv at 50 mg or less doses. The format is in vivo.
The conditions of data set [3]: cited from earlier work.
For data set [4] the following is noted: pure water and aqueous solutions buffered at pH 5-7; cited from earlier work.
The subject of a further data set is liver. Kind of data set: Absence of hepatotoxicity, 2-month daily i.v. injection in rats. The data set is classed as in vivo, rat. Particulars: male Wistar rats, 1.5 mg/kg daily i.v. for 2 months. On the procedure: Adult male Wistar rats were daily injected with 1.5 mg/kg of DAM.HCl in saline solution (i.e. the solution of Ex 1) per i.v. route for 2 months, then slaughtered.

The next data set deals with α2 -adrenoreceptors. The data set can be described thus: Radioligand binding, (3H)-rauwolscine, rabbit urethral membranes. To be noted: male rabbit urethral membrane preparation. The method, then:
(§1) α-adrenoreceptors can be by use of a ^3 H- or 125 I- labelled specific antagonist (or agonist) on membrane preparations of the concerned organ, here rabbit urethra.
(§2) A male rabbit urethral grinding was filtered then centrifugated. The filtrate thus obtained is a membrane preparation which was incubated with a radioactive ligand, namely (^125 I)-HEAT [wherein HEAT is 2-[2-(3-iodio-4-hydroxyphenyl)ethyl-aminoethyl]-tetralone for the α1 -adrenoreceptors, and (^3 H)-rauwolscine for the α2 -adrenoreceptors.
(§3) The incubations were carded out in the absence or in the presence of an increasing concentration of the product to be tested. The affinity was measured by means of the inhibition coefficient (Ki).

The target of data set [5] is T1, isolated rabbit urethra (contraction induced by noradrenaline) (Oryctolagus cuniculus, UniProt O02824).
T1 construct: from tissue; host or cells: isolated urethra of male rabbits
T1 sequence (O02824 1-466): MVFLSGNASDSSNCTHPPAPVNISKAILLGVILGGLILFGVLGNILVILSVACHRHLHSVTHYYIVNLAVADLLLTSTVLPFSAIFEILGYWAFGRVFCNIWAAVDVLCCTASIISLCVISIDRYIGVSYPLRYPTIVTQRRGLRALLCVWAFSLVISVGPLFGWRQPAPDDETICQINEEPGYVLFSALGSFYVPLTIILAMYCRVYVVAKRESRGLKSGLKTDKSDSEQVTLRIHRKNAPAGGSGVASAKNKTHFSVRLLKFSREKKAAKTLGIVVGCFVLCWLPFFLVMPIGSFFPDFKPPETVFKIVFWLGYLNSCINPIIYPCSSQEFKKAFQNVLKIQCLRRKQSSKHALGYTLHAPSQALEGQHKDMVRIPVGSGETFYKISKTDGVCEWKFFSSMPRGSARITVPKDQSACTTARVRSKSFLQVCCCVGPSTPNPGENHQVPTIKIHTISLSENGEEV
Kind of data set: Isolated rabbit urethra: antagonism of noradrenaline-induced contraction. The format is cell-based. To be noted: against noradrenaline, isolated male rabbit urethra, 5 experiments; read-out: pA2 (converted). On the procedure: After slaughtering of male rabbits, each urethra was taken out then placed into a receptacle containing a physiological saline aqueous solution, and kept at 37° C. with an oxygen/carbon oxide mixture (95/5 p/p). One end of the urethra was fixed to a pressure captor linked to a recording device for measuring the organ contractions.
Contracturing effects of noradrenaline were determined by succesive infusions of increasing […] up to the contraction corresponding to the maximal amplitude. The measures were carded out with and without DAM.HCl.
The activity of DAM.HCl was measured as a pA2 value, pA2 being here the cologarithm of the antagonist molar concentration in the presence of which the noradrenaline concentration needs to be multiplied by two to obtain the same effect in the absence of antagonist.

Data set [6] deals with urethral and arterial pressures induced by noradrenaline. Kind of data set: Anesthetized rabbits: noradrenaline-induced increases in urethral and arterial pressure. The data set is classed as in vivo, rabbit. To be noted: Oryctolagus cuniculus, iv, noradrenaline-induced increase, i.v. On the procedure: Male White New-Zealand rabbits (weighing 3 kg each) were anesthetized with ethyl-urethane. Arterial pressure (AP) was measured with a pressure captor linked to a catheter located in the carotid; urethral pressure (UP) was determined with a pressure captor linked to a catheter introduced into the urethra and located at the level of the vesical base. The femoral vein was also catheterized for administering the products to be tested.
The increases in the urethral and arterial pressures, which were induced by noradrenaline, were determined after i.v. injections of increasing doses for periods of 3 minutes each, from 15 minutes before the injection of the α-blocking product to be tested to 15 minutes after said injection.
The results thus obtained are expressed hereinafter an inhibiting dose 50% (ID-50) which is defined as the dose of a-blocking product in the presence of which, the effect of the largest dose of noradrenaline is divided by a factor 2.

A further data set relates to α1 -adrenoreceptors. Kind of data set: Radioligand binding, (125I)-HEAT, rabbit urethral membranes. The method, then: as §1, §2, §3
Data set [7] relates to increase in UP induced by electric stimulation of the hypogastric nerve. The data set can be described thus: Anesthetized dogs: hypogastric nerve stimulation, urethral pressure, AP and HR. To be noted: anesthetized Beagle dogs. The format is in vivo, dog. The method, then: Adult male Beagle dogs were anesthetized by i.v. injection of sodium barbital (30 mg/kg).
The cannulation of each carotid and urethra allowed measurement of AP and UP. By derivation of the AP signal, the heart rate (HR) was recorded.
The increase in UP was induced by electric stimulation of the hypogastric nerve distal roots (10 ms, 30 Hz, 5s, 6-10 V). That increase in UP is determined before and 15 minutes after the injection of the α-blocking agent to be tested.
The results were expressed by calculating a ID-50 defined as the dose of α-blocking agent which inhibits 50% of the effects of the hypogastric nerve stimulation on UP. The effects of said ID-50 were determined on AP and HR in order to obtain a variation percentage with respect to the initial values.

Structures are written as SMILES. Structures can show the parent of a compound that is named as a salt. Where two headings read alike, the source gives them in different places.

Regarding `Cc1cc(OCCN(C)C)c(C(C)C)cc1O` [DAM, 4-[2-(dimethylamino)ethoxy]-2-methyl-5-(1-methylethyl)phenol], the “stability in aqueous solution” value in [1] (aqueous solution) was “stable”. Further, the “degradation on sterilization of aqueous solution” value in [1] (classical sterilization, e.g. autoclave 15 minutes at 121° C. or sterilizing filtration) is “without degradation”. Also, the hepatotoxicity i.v. entry in data set [2] is recorded as “substantially devoid of hepatotoxicity”.

Take `Cc1cc(OCCN(C)C)c(C(C)C)cc1O` [DAM.HCl, Deacetyl moxisylyte hydrochloride]: the “stability of water solution at 25° C.” value in data set [3] (1% p/v, no antioxidant, pH 5, 6 and 7, 25° C.) is 15 days. In addition, the “stability of water solution at 121° C.” value in [3] (1% p/v, no antioxidant, pH 5, 6 and 7, 121° C.) was 90 min. Moreover, in data set [3] (1% p/v, pH 5, 6 and 7, sodium sulfite 0.1 p/v, 95° C., no coloration), the “stability of water solution with Na2 SO3 at 95° C.” value was 15 days. In addition, the solubility (soluble up to a concentration) in [4] is > 10 % p/v. Also, in the data set on liver, the “hepatotoxicity (study of organs, analysis of the liver)” value was “no sign of hepatotoxicity”. The Ki on α2 -adrenoreceptors was found to be 637 ± 94 nM; on α1 -adrenoreceptors (male rabbit urethral membrane preparation, (125I)-HEAT), 109 ± 20 nM. In addition, in [5], the Kb was 3.16 nM. The ED50 in data set [6] (n = 5, read-out: ID-50 i.v., AP (arterial pressure)) amounted to 3.5 ± 0.65 mg/kg; in data set [6] (n = 5, read-out: ID-50 i.v., UP (urethral pressure)), 0.4 ± 0.03 mg/kg. Moreover, the “times more active on α1 -adrenoreceptors than on α2 -adrenoreceptors” value with α1 -adrenoreceptors (from Ki values of table II) is “six”. Further, the “Effect of ID-50 on AP (variation percentage with respect to the initial values)” value in data set [7] (at the ID-50 dose) was -6%. For the same compound, the “Effect of ID-50 on HR (variation percentage with respect to the initial values)” value in data set [7] (at the ID-50 dose) is -5%. Also, the “ID-50, effect on UP” value in data set [7] (hypogastric nerve stimulation, 15 minutes after injection, in mg/kg) is 0.05 ± 0.01.

As to `CC(=O)Oc1cc(C(C)C)c(OCCN(C)C)cc1C` [moxisylyte, 4-[2-(dimethylamino)ethoxy]-2-methyl-5-(1methylethyl)phenol acetate, reference compound], the “stability of solution stabilized with dimethyl-beta-cyclodextrin at 45° C.” value in [3] (pH 5 solution, 1 mg/ml, dimethyl-beta-cyclodextrin as stabilizing agent, 45° C.) is reported as 3 months.

The values are drawn from patent US5561154A, “Treatment of acute urinary retention” (Institut de Recherches Chimiques et Bioloques Appliquees …, priority 1995, dated 1996).
